# pIC50, pKi: −log10 of the molar value. Counter-ions that a name gives are not always drawn. Like-named read-outs stand apart in the source and are kept apart here.
# Key:
# hERG potassium channel = hERG potassium channel (Homo sapiens, UniProt Q12809); test: in vitro; settings: %inh
# Serotonin 5-HT2C = molecular target: T1, Serotonin 5-HT2C (Homo sapiens, UniProt P28335); test: Eurofins SafetyScreen panel; type: binding
# T1 construct: Eurofins (contract assay)
# T1 sequence (P28335 33-458): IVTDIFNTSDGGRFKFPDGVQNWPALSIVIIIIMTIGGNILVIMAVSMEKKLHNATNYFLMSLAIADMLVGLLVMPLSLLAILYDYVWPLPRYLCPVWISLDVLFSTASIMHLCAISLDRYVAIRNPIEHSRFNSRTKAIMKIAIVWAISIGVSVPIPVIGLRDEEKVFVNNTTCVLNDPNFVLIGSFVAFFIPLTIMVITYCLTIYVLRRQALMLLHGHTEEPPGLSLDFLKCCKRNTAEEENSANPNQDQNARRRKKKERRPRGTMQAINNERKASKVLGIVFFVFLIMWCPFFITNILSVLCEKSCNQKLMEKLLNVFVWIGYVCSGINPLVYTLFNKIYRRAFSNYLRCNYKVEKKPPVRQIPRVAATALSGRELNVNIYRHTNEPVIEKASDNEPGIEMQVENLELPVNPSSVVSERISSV
# Dopamine D2S = molecular target: T2, Dopamine D2S (Homo sapiens, UniProt P14416); test: Eurofins SafetyScreen panel; type: binding
# T2 construct: purchased Eurofins (Panlabs) SafetyScreen87 Panel
# Sigma σ1 = molecular target: T3, Sigma σ1 (Homo sapiens, UniProt Q99720); test: Eurofins SafetyScreen panel; type: binding
# T3 construct: Eurofins (contract assay) 278110
# Cannabinoid CB2 = molecular target: T4, Cannabinoid CB2 (Homo sapiens, UniProt P34972); test: Eurofins SafetyScreen panel; type: binding
# T4 construct: purchased Eurofins (Panlabs) SafetyScreen87 Panel
# [1] = molecular target: Ca Channel L-Type, Dihydropyridine (Rattus norvegicus, UniProt P22002); test: Eurofins SafetyScreen panel; type: binding
# Serotonin 5-HT7 = molecular target: T5, Serotonin 5-HT7 (Homo sapiens, UniProt P34969); test: Eurofins SafetyScreen panel; type: binding
# T5 construct: Eurofins (contract assay) 272320
# Tachykinin NK1 = molecular target: T6, Tachykinin NK1 (Homo sapiens, UniProt P25103); test: Eurofins SafetyScreen panel; type: binding
# T6 construct: Eurofins (contract assay)
# Vasopressin V1A = molecular target: T7, Vasopressin V1A (Homo sapiens, UniProt P37288); test: Eurofins SafetyScreen panel; type: binding
# T7 construct: Eurofins (contract screening, SafetyScreen panel) PP223
# Opiate κ (OP2, KOP) = molecular target: T8, Opiate κ (OP2, KOP) (Homo sapiens, UniProt P41145); test: Eurofins SafetyScreen panel; type: binding
# T8 construct: Eurofins (contract assay)
# Adenosine A2A = molecular target: T9, Adenosine A2A (Homo sapiens, UniProt P29274); test: Eurofins SafetyScreen panel; type: binding
# T9 construct: Eurofins (contract screening, SafetyScreen panel) PP223
# [2] = molecular target: T10, Dopamine Transporter (DAT) (Homo sapiens, UniProt Q01959); test: Eurofins SafetyScreen panel; type: binding
# T10 construct: Eurofins (contract assay)
# Chemokine CCR2 (IL-8RB) = molecular target: T11, Chemokine CCR2 (IL-8RB) (Homo sapiens, UniProt P25025); test: Eurofins SafetyScreen panel; type: binding; settings: read-out: %inh
# T11 construct: purchased Eurofins (Panlabs) SafetyScreen87 Panel
# MAO-A = molecular target: T12, MAO-A (Homo sapiens, UniProt P21397); test: Eurofins SafetyScreen panel; type: biochemical
# T12 construct: Eurofins
# [3] = molecular target: T13, Leukotriene, Cysteinyl CysLT1 (Homo sapiens, UniProt Q9Y271); test: Eurofins SafetyScreen panel; type: binding
# T13 construct: purchased Eurofins (Panlabs) SafetyScreen87 Panel
# Serotonin 5-HT1A = molecular target: T14, Serotonin 5-HT1A (Homo sapiens, UniProt P08908); test: Eurofins SafetyScreen panel; type: binding
# T14 construct: Eurofins (contract assay)
# T14 sequence (P08908 1-422): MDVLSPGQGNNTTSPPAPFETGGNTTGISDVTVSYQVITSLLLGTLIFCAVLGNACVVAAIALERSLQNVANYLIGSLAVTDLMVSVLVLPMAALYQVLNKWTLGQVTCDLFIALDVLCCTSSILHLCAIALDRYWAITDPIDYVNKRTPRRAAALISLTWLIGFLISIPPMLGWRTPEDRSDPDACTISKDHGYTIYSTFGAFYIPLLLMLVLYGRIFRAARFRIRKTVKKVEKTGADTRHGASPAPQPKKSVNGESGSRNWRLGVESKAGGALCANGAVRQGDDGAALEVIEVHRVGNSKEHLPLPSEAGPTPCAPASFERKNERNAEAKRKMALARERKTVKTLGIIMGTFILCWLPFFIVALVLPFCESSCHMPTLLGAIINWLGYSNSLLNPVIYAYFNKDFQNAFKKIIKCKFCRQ
# Dopamine D3 = molecular target: T15, Dopamine D3 (Homo sapiens, UniProt P35462); test: Eurofins SafetyScreen panel; type: binding
# T15 construct: Eurofins (contract screening) 219800
# Glutamate NMDA, Glycine = Glutamate NMDA, Glycine (Rattus norvegicus, UniProt P35439); test: Eurofins SafetyScreen panel; type: binding
# Histamine H2 = molecular target: T16, Histamine H2 (Homo sapiens, UniProt P25021); test: Eurofins SafetyScreen panel; type: binding
# T16 construct: purchased Eurofins (Panlabs) SafetyScreen87 Panel
# [4] = read-out: %inh, 10 μM, additional batch
# T3 sequence (Q99720 whole entry): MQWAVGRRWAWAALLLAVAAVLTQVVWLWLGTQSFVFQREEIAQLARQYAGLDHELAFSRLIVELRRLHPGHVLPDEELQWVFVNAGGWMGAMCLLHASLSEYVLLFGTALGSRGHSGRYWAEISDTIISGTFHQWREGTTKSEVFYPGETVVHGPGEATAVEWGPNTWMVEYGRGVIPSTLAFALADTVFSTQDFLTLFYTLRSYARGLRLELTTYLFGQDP
# T6 sequence (P25103 whole entry): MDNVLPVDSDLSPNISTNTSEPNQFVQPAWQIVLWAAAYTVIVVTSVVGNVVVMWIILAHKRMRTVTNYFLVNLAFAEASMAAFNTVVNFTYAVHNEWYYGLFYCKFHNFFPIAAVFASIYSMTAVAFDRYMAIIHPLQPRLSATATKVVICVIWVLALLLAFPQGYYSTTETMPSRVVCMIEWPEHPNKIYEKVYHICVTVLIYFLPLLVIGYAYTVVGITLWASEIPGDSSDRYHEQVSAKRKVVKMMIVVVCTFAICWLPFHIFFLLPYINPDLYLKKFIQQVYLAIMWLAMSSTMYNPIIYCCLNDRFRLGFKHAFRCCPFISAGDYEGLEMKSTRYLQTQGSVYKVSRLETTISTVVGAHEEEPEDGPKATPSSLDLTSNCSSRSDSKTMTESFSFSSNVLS
# Sequence of hERG potassium channel (Q12809 whole entry): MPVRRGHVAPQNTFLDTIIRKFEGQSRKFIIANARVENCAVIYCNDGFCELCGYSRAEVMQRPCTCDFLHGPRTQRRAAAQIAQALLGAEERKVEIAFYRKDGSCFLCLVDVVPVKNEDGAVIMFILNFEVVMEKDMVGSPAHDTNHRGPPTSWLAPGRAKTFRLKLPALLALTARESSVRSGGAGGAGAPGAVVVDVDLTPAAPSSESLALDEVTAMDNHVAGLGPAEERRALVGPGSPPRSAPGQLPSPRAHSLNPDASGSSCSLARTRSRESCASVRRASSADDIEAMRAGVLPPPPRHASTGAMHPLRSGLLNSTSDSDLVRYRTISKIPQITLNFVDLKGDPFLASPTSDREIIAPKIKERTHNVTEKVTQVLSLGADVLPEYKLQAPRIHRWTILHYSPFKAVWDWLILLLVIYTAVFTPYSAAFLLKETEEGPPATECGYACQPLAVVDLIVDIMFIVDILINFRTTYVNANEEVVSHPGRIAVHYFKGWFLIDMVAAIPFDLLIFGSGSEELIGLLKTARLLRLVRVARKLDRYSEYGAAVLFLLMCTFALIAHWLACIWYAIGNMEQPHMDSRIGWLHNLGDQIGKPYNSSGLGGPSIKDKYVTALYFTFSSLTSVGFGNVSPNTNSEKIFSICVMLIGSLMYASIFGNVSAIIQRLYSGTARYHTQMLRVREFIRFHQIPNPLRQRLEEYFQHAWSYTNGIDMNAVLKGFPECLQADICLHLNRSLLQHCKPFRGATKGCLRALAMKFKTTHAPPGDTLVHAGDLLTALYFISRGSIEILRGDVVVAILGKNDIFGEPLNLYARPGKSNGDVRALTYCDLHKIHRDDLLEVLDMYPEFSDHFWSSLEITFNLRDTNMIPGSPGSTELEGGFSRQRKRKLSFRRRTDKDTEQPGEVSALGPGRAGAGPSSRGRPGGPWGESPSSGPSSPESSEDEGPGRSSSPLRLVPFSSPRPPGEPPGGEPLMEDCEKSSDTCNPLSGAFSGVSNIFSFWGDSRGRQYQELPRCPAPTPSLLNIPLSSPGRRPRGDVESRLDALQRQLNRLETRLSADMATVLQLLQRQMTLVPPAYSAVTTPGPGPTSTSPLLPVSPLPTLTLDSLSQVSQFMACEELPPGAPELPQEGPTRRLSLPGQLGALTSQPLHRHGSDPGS
# T8 sequence (P41145 whole entry): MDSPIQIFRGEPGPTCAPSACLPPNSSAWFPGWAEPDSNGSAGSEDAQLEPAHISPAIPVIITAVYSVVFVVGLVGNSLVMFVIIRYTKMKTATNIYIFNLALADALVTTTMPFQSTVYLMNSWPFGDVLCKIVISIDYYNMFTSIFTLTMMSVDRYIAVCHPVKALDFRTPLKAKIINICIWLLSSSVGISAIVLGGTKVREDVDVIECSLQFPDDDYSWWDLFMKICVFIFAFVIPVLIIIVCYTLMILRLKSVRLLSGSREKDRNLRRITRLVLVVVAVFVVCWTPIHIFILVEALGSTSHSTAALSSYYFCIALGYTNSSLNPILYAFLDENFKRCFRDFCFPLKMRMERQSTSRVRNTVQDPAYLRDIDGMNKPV
# T5 sequence (P34969 whole entry): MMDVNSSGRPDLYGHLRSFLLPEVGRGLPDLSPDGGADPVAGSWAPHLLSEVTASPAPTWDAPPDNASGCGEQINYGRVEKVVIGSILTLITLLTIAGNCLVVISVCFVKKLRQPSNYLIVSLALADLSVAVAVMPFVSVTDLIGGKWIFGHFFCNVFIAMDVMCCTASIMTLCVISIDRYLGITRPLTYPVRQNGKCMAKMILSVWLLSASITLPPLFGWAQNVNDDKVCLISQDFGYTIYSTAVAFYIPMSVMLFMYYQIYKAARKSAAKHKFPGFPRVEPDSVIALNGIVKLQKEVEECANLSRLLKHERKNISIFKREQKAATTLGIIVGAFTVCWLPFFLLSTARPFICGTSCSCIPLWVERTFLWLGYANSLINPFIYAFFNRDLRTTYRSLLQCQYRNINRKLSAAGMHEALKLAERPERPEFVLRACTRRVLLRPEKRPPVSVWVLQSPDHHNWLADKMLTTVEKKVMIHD
# T10 sequence (Q01959 whole entry): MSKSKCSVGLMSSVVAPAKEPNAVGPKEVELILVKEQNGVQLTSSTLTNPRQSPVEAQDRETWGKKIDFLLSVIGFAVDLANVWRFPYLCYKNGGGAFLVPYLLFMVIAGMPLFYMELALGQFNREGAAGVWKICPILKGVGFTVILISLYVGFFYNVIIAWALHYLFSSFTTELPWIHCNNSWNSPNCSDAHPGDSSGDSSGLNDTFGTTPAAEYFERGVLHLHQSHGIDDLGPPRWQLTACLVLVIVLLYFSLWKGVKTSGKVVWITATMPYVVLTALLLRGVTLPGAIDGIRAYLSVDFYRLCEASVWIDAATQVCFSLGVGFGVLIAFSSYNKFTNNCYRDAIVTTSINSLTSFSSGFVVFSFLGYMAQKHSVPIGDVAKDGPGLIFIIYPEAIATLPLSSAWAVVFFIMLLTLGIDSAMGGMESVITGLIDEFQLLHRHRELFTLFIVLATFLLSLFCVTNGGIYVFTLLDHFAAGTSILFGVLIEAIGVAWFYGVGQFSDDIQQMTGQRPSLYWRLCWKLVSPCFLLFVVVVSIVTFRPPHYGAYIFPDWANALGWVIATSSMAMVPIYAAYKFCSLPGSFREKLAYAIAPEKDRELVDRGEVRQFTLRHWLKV
# T15 sequence (P35462 whole entry): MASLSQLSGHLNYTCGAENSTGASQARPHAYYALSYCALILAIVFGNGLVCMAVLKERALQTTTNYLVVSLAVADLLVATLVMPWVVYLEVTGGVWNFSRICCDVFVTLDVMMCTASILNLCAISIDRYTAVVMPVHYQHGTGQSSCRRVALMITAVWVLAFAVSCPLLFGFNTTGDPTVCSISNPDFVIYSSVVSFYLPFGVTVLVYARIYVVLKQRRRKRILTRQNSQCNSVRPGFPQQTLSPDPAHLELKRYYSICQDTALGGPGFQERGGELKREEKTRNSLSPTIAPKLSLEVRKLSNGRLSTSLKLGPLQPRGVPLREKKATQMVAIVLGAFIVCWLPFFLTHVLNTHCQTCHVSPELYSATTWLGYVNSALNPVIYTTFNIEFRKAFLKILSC
# T13 sequence (Q9Y271 whole entry): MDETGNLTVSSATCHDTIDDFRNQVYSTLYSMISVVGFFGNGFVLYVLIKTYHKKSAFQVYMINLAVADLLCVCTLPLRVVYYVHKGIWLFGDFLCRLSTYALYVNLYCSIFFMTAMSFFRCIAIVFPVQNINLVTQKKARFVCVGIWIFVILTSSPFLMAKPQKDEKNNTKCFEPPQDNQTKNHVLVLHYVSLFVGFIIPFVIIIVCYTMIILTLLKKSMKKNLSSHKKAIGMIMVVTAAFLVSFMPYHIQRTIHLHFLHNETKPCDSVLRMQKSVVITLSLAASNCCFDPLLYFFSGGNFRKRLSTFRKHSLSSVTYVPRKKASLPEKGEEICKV
# T7 sequence (P37288 whole entry): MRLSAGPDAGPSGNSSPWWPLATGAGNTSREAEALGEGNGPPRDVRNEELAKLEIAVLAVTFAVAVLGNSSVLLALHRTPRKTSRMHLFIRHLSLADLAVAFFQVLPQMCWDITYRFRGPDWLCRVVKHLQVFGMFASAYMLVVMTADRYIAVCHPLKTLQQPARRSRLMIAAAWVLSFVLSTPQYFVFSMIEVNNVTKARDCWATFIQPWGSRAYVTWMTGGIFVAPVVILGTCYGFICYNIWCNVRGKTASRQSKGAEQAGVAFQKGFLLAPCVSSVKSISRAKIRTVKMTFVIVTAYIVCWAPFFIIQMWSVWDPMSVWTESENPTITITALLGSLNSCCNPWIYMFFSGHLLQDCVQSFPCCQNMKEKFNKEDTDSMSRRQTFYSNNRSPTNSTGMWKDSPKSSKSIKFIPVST
# T12 sequence (P21397 whole entry): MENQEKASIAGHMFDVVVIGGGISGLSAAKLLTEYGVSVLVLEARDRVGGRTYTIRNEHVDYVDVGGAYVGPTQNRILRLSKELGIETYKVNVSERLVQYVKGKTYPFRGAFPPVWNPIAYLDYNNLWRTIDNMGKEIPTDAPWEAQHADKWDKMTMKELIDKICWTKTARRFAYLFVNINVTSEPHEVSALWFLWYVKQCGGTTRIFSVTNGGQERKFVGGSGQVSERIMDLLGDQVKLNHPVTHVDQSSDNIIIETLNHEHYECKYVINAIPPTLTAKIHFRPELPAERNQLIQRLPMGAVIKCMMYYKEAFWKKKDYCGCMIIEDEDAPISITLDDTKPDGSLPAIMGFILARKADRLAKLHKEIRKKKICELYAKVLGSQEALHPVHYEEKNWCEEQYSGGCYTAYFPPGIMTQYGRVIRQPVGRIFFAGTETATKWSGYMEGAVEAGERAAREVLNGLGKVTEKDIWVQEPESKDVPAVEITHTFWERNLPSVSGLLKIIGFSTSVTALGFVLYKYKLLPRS
structure (smiles),measurement,setting,value
"O=S(=O)(c1cccc(F)c1)n1ccc2c(N3CCNCC3)nc3ccccc3c21 [FPPQ, 1-[(3-Fluorophenyl)sulfonyl]-4-(piperazin-1-yl)-1H-pyrrolo[3,2-c]quinoline dihydrochloride]",inhibition at 0.01 µM,hERG potassium channel; 10 nM,9%
same,inhibition at 0.1 µM,hERG potassium channel; 0.1 μM,9%
same,inhibition at 1 µM,hERG potassium channel; 1 μM,32%
same,inhibition at 10 µM,hERG potassium channel,107%
same,inhibition at 10 µM,hERG potassium channel; additional batch,101%
same,pIC50,Serotonin 5-HT2C,5.80
same,pKi,Serotonin 5-HT2C,6.08
same,inhibition at 0.01 µM,"Serotonin 5-HT2C; read-out: %inh, 10 nM, additional batch",-5%
same,inhibition at 0.1 µM,"Serotonin 5-HT2C; read-out: %inh, 0.1 μM",-6%
same,inhibition at 1 µM,"Serotonin 5-HT2C; read-out: %inh, 1 μM",32%
same,inhibition at 10 µM,"Serotonin 5-HT2C; read-out: %inh, 10 μM",94%
same,inhibition at 10 µM,Serotonin 5-HT2C; [4],93%
same,inhibition at 10 µM,Dopamine D2S,46%
same,pIC50,Sigma σ1,5.08
same,pKi,Sigma σ1,5.46
same,inhibition at 0.1 µM,Sigma σ1; read-out: %inh,7%
same,inhibition at 1 µM,Sigma σ1; read-out: %inh,18%
same,inhibition at 10 µM,Sigma σ1; read-out: %inh,51%
same,inhibition at 100 µM,Sigma σ1; read-out: %inh,89%
same,inhibition at 10 µM,Cannabinoid CB2,-21%
same,inhibition at 0.01 µM,[1]; 10 nM,-4%
same,inhibition at 0.1 µM,[1]; 0.1 μM,3%
same,inhibition at 1 µM,[1]; 1 μM,60%
same,inhibition at 10 µM,[1],89%
same,inhibition at 10 µM,[1]; additional batch,78%
same,inhibition at 0.1 µM,"Serotonin 5-HT7; read-out: %inh, 0.1 μM",-1%
same,inhibition at 1 µM,"Serotonin 5-HT7; read-out: %inh, 1 μM",21%
same,inhibition at 10 µM,"Serotonin 5-HT7; read-out: %inh, 10 μM",65%
same,inhibition at 10 µM,Serotonin 5-HT7; [4],67%
same,inhibition at 100 µM,"Serotonin 5-HT7; read-out: %inh, 100 μM",93%
same,pIC50,Tachykinin NK1,4.86
same,pKi,Tachykinin NK1,5.00
same,inhibition at 0.1 µM,Tachykinin NK1; 0.1 μM,0%
same,inhibition at 1 µM,Tachykinin NK1; 1 μM,10%
same,inhibition at 10 µM,Tachykinin NK1,40%
same,inhibition at 10 µM,Tachykinin NK1; additional batch,58%
same,inhibition at 100 µM,Tachykinin NK1; 100 μM,92%
same,inhibition at 10 µM,Vasopressin V1A,-18%
same,pIC50,"Opiate κ (OP2, KOP)",5.09
same,pKi,"Opiate κ (OP2, KOP)",5.49
same,inhibition at 0.1 µM,"Opiate κ (OP2, KOP); read-out: %inh, 0.1 μM",5%
same,inhibition at 1 µM,"Opiate κ (OP2, KOP); read-out: %inh, 1 μM",8%
same,inhibition at 10 µM,"Opiate κ (OP2, KOP); read-out: %inh, 10 μM",55%
same,inhibition at 10 µM,"Opiate κ (OP2, KOP); [4]",64%
same,inhibition at 100 µM,"Opiate κ (OP2, KOP); read-out: %inh, 100 μM",99%
same,inhibition at 10 µM,Adenosine A2A,1%
same,pIC50,[2],5.86
same,inhibition at 0.01 µM,"[2]; read-out: %inh, 10 nM",2%
same,inhibition at 0.1 µM,"[2]; read-out: %inh, 0.1 μM",6%
same,inhibition at 1 µM,"[2]; read-out: %inh, 1 μM",31%
same,inhibition at 10 µM,"[2]; read-out: %inh, 10 μM",101%
same,inhibition at 10 µM,[2]; [4],98%
same,inhibition at 10 µM,Chemokine CCR2 (IL-8RB),21%
same,inhibition at 10 µM,MAO-A,12%
same,inhibition at 10 µM,[3],10%
same,pIC50,Serotonin 5-HT1A,6.07
same,pKi,Serotonin 5-HT1A,6.31
same,inhibition at 0.01 µM,"Serotonin 5-HT1A; read-out: %inh, 10 nM",-2%
same,inhibition at 0.1 µM,"Serotonin 5-HT1A; read-out: %inh, 0.1 μM",16%
same,inhibition at 1 µM,"Serotonin 5-HT1A; read-out: %inh, 1 μM",53%
same,inhibition at 10 µM,"Serotonin 5-HT1A; read-out: %inh, 10 μM",87%
same,inhibition at 10 µM,Serotonin 5-HT1A; [4],91%
same,pIC50,Dopamine D3,6.20
same,pKi,Dopamine D3,6.68
same,inhibition at 0.01 µM,"Dopamine D3; read-out: %inh, 10 nM",-2%
same,inhibition at 0.1 µM,"Dopamine D3; read-out: %inh, 0.1 μM",14%
same,inhibition at 1 µM,"Dopamine D3; read-out: %inh, 1 μM",63%
same,inhibition at 10 µM,"Dopamine D3; read-out: %inh, 10 μM",89%
same,inhibition at 10 µM,Dopamine D3; [4],90%
same,inhibition at 10 µM,"Glutamate NMDA, Glycine",-1%
same,inhibition at 10 µM,Histamine H2,45%
